Measurements reported in ChEMBL document CHEMBL1142543, “Arabinose 5-phosphate analogues as mechanistic probes for Neisseria meningitidis 3-deoxy-D-manno-octulosonate 8-phosphate synthase” (Bioorg Med Chem, 2008).

Test system: Neisseria meningitidis MC58
Experiment: Activity at Neisseria meningitidis B MC58 (ATCC BAA355) recombinant 3-deoxy-D-manno-octulosonate 8-phosphate synthase expressed in Escherichia coli BL21 (DE3)

Row | SMILES | kcat [s⁻¹]
1 | O=C[C@@H](O)[C@H](O)[C@@H](O)COP(=O)(O)O | 1.1
2 | O=C[C@@H](O)[C@H](O)[C@H](O)COP(=O)(O)O | 2.7
